Tests used:
[1] = system: Magnaporthe grisea (Pyricularia oryzae); experiment: microbe, parasite or virus in culture; type: cell-based; conditions: read-out: control of Magnaporthe grisea
Sclerotinia sclerotiorum = Sclerotinia sclerotiorum / liquid culture (cottony rot); conditions: read-out: control of Sclerotinia sclerotiorum
Description: Sclerotinia sclerotiorum/Liquid Culture (Cottony Rot)
Mycelia fragments of a newly grown liquid culture of the fungus are directly mixed into nutrient broth (Vogels broth). After placing a (DMSO) solution of test compound into a microtiter plate (96-well format) the nutrient broth containing the fungal material is added. The test plates are incubated at 24° C. and the inhibition of growth is determined photometrically 3-4 days after application.

[2] = system: Botryotinia fuckeliana (Botrytis cinerea); experiment: Botryotinia fuckeliana (Botrytis cinerea) / liquid culture (gray mould); type: cell-based; conditions: 72 h, 200 ppm, compared to untreated control, growth inhibition photometrically 3-4 days after application, read-out: disease control
Gaeumannomyces graminis = Gaeumannomyces graminis / liquid culture (take-all of cereals); type: cell-based; conditions: compared to untreated control, 4-5 days after application
[3] = system: Monographella nivalis (Microdochium nivale); experiment: Monographella nivalis (Microdochium nivale) / liquid culture (foot rot cereals); type: cell-based; conditions: 200 ppm, compared to untreated control, growth inhibition photometrically 4-5 days after application, read-out: disease control
[4] = system: Glomerella lagenarium (Colletotrichum lagenarium); experiment: Glomerella lagenarium (Colletotrichum lagenarium) / liquid culture (anthracnose); type: cell-based; conditions: Colletotrichum orbiculare; 200 ppm; compared to untreated control; growth inhibition photometrically 3-4 days after application; read-out: disease control
Fusarium culmorum [5] = experiment: whole plant or invertebrate; type: in vivo, Fusarium culmorum on wheat spikelets cv. Monsun; conditions: in Triticum aestivum, 144 h, read-out: control of Fusarium culmorum
Fusarium culmorum [6] = experiment: microbe, parasite or virus in culture; type: cell-based; conditions: read-out: disease control

SMILES	inhibition of growth at 20 ppm [1]	inhibition of growth at 20 ppm (Sclerotinia sclerotiorum)	inhibition of growth at 200 ppm [2]	inhibition of growth at 20 ppm (Gaeumannomyces graminis)	inhibition of growth at 200 ppm [3]	inhibition of growth at 200 ppm [4]	pest or weed control at 200 ppm (Fusarium culmorum [5])	inhibition of growth at 200 ppm (Fusarium culmorum [6])	melting point
CC(C)C(C)(C#Cc1ccccc1F)NC(=O)c1cnc2c(F)cccc2c1 (centres unmarked) [Compound F-12, 8-fluoro-N-[3-(2-fluorophenyl)-1-isopropyl-1-methyl-prop-2-ynyl]quinoline-3-carboxamide]	≥ 80%	≥ 80%	≥ 80%	≥ 80%	≥ 80%	≥ 80%	≥ 80%	≥ 80%	–
CCC(C)(C#Cc1ccccc1)NC(=O)c1cnc2c(C)cccc2c1 (centres unmarked) [Compound F-9, N-(1-ethyl-1-methyl-3-phenyl-prop-2-ynyl)-8-methyl-quinoline-3-carboxamide]	≥ 80%	≥ 80%	≥ 80%	–	≥ 80%	≥ 80%	≥ 80%	≥ 80%	135 to 137 °C
CC(C)[C@@](C)(C#Cc1ccccc1)NC(=O)c1cnc2c(F)cccc2c1 (single isomer, unassigned) [Compound G-7]	≥ 80%	≥ 80%	≥ 80%	–	≥ 80%	≥ 80%	≥ 80%	≥ 80%	–
CC(C)C[C@@](C)(C#Cc1ccccc1)NC(=O)c1cnc2c(F)cccc2c1 [Compound G-5, N-[(1S)-1,3-dimethyl-1-(2-phenylethynyl)butyl]-8-fluoro-quinoline-3-carboxamide]	≥ 80%	≥ 80%	≥ 80%	≥ 80%	≥ 80%	≥ 80%	–	≥ 80%	124 to 127 °C
Cc1c(C(=O)NC(C)(C)C#Cc2ccccc2)cnc2c(F)cccc12 [Compound F-51, N-(1,1-dimethyl-3-phenyl-prop-2-ynyl)-8-fluoro-4-methyl-quinoline-3-carboxamide]	≥ 80%	≥ 80%	≥ 80%	≥ 80%	≥ 80%	≥ 80%	–	≥ 80%	–
CCC(C)(C#Cc1ccccc1C)NC(=O)c1cnc2c(F)cccc2c1 (centres unmarked) [Compound F-15, N-[1-ethyl-1-methyl-3-(o-tolyl)prop-2-ynyl]-8-fluoro-quinoline-3-carboxamide]	≥ 80%	≥ 80%	≥ 80%	–	≥ 80%	≥ 80%	–	≥ 80%	143 to 146 °C
CC(C)(C)C(C#Cc1ccccc1)NC(=O)c1cnc2c(F)cccc2c1 (centres unmarked) [Compound F-5, N-(1-tert-butyl-3-phenyl-prop-2-ynyl)-8-fluoro-quinoline-3-carboxamide]	≥ 80%	≥ 80%	≥ 80%	≥ 80%	≥ 80%	≥ 80%	–	≥ 80%	179 to 181 °C
Cc1nc2c(F)cccc2cc1C(=O)NC(C)(C)C#Cc1ccccc1 [Compound F-50, N-(1,1-dimethyl-3-phenyl-prop-2-ynyl)-8-fluoro-2-methyl-quinoline-3-carboxamide]	≥ 80%	≥ 80%	≥ 80%	–	–	≥ 80%	–	≥ 80%	118 to 123 °C
